Tests used:
Assay type in all cases: cell-based
HuH7 cells = assay: MTS cell proliferation assay, HuH7; conditions: Homo sapiens, Huh-7, 72-hour incubation
Experimental: (§1) Cell lines and culture conditions: Human colon cancer cells Caco-2, HT29 and HCT15, human pancreatic cancer cells BxPC3, CFPAC-1, and CAPAN-2, liver cancer cells SNU423 and kidney cells HEK293, were obtained from American Type Culture Collection (Rockville, USA). HeLa, DLD1, U937, THP-1, and NIH3T3 cells were obtained from ATCC. Huh7 cells were obtained from (Japanese Cancer Resources Bank). HeLa cells, Huh7, DLD1 and NIH-3T3 cells were cultured in DMEM (Dulbecco's modification of Eagle's Medium; Corning) supplemented with 10% Fetal Bovine Serum (FBS; Invitrogen) and 10% Fetal Calf Serum (FCS; Atlanta Biologicals) respectively. U937, BxPC3, HCT15, SNU423 and THP-1 cells were grown in RPMI-1640 (Roswell Park Memorial Institute; Corning) supplemented with 10% Fetal Bovine Serum (FBS; Invitrogen). CFPAC-1 cells were cultured in Iscove's Modified Dulbecco's Medium (ATCC) supplemented with 10% FBS. CAPAN-2 and HT29 cells were cultured in McCoy's 5a medium supplemented with 10% FBS. Caco2 and HEK293 cells were grown in Eagle's Minimum Essential Medium (ATCC) with final 20% FBS concentration. All cells were maintained at 37° C. in 5% CO2 at constant 70% humidity.
(§2) MTS cell proliferation assay: Cells were detached from the plates using trypsin (0.25% for 3 mins, ATCC) and counted using a hemocytometer and were plated at 3000-1500 cells per well, in a 96-well format. The cells were seeded in the inner wells of 96 well plates, and media was added to the outer wells (blank). For NIH-3T3, 1500 cells were seeded in the inner wells of 96-well plates, and after 20 hours cells were treated with compound or DMSO (vehicle control) at appropriate concentrations (DMSO at final concentration of 1%). For other adherent cells 3000 HeLa, BxPC3, CFPAC-1, CAPAN-2, HEK293, HCT15, HT29, CaCo2, DLD1, Huh7 or SNU423 cells were seeded in in each well approximately 20 hrs prior to the treatment. For U937 and THP-1 suspension cells, 2500 cells were added to the wells of a 96-well plate on the day of treatment. After a 72-hour (or 120 hrs for BxPC3, CAPAN-2, SNU423) incubation with compound or vehicle, cell growth was assessed via the Promega CellTiter 96® AQueous One Solution Cell Proliferation Assay, a colorimetric method to determine the number of viable cells. 20 μL of the CellTiter 96® AQueous One Solution Reagent was added directly into cultured wells and incubated for approximately one hour, after which the absorbance at 490 nm was read with a 96-well plate reader (Opys MR Microplate Reader). GI50 values were determined from plots of the percentage of compound-treated cell growth to vehicle cell growth vs. compound concentration (GraphPad Prism; non-linear regression, log inhibitor verse normalized response with variable slope).

SNU-423 cells = assay: MTS cell proliferation assay, SNU-423; conditions: Homo sapiens, 120 hrs incubation
Experimental: as §1, §2

HeLa cells = assay: MTS cell proliferation assay, HeLa; conditions: Homo sapiens, 72-hour incubation
Experimental: as §1, with “All cells were maintained at 37° C. in 5% CO2 at constant 70% humidity.” left out
(§3) MTS cell proliferation assay: Cells were detached from the plates using trypsin (0.25% for 3 mins, ATCC) and counted using a hemocytometer and were plated at 3000-1500 cells per well, in a 96-well format. […] After a 72-hour (or 120 hrs for BxPC3, CAPAN-2, SNU423) incubation with compound or vehicle, cell growth was assessed via the Promega CellTiter 96® AQueous One Solution Cell Proliferation Assay, a colorimetric method to determine the number of viable cells. 20 μL of the CellTiter 96® AQueous One Solution Reagent was added directly into cultured wells and incubated for approximately one hour, after which the absorbance at 490 nm was read with a 96-well plate reader (Opys MR Microplate Reader). GI50 values were determined from plots of the percentage of compound-treated cell growth to vehicle cell growth vs. compound concentration (GraphPad Prism; non-linear regression, log inhibitor verse normalized response with variable slope).

NIH 3T3 cells = assay: MTS cell proliferation assay, NIH 3T3; conditions: Mus musculus, NIH3T3, 72-hour incubation
Experimental: as §1, with “All cells were maintained at 37° C. in 5% CO2 at constant 70% humidity.” left out
as §3

HT-29 cells = assay: MTS cell proliferation assay, HT-29; conditions: Homo sapiens, 72-hour incubation
Experimental: (§4) Cell lines and culture conditions: Human colon cancer cells Caco-2, HT29 and HCT15, human pancreatic cancer cells BxPC3, CFPAC-1, and CAPAN-2, liver cancer cells SNU423 and kidney cells HEK293, were obtained from American Type Culture Collection (Rockville, USA). HeLa, DLD1, U937, THP-1, and NIH3T3 cells were obtained from ATCC. Huh7 cells were obtained from (Japanese Cancer Resources Bank). HeLa cells, Huh7, DLD1 and NIH-3T3 cells were cultured in DMEM (Dulbecco's modification of Eagle's Medium; Corning) supplemented with 10% Fetal Bovine Serum (FBS; Invitrogen) and 10% Fetal Calf Serum (FCS; Atlanta Biologicals) respectively. […]
as §3, with “GI50 values were determined from plots of the percentage of compound-treated cell growth to vehicle cell growth vs. compound concentration (GraphPad Prism; non-linear regression, log inhibitor verse normalized response with variable slope).” left out

HCT-15 cells = assay: MTS cell proliferation assay, HCT-15; conditions: Homo sapiens, 72-hour incubation
Experimental: as §4
as §3, with “GI50 values were determined from plots of the percentage of compound-treated cell growth to vehicle cell growth vs. compound concentration (GraphPad Prism; non-linear regression, log inhibitor verse normalized response with variable slope).” left out

CaCo-2 cells = assay: MTS cell proliferation assay, CaCo-2; conditions: Homo sapiens, 72-hour incubation
Experimental: as §4
as §3, with “GI50 values were determined from plots of the percentage of compound-treated cell growth to vehicle cell growth vs. compound concentration (GraphPad Prism; non-linear regression, log inhibitor verse normalized response with variable slope).” left out

SMILES: CCOc1cc(N(C)C)ccc1[C@H]1CC(=O)Nc2cc3c(cc21)OCO3 [(S)-FQI-34]
- GI50 (HuH7 cells): 56 nM
- GI50 (SNU-423 cells): 50 nM
- GI50 (HeLa cells): 3800 nM
- GI50 (NIH 3T3 cells): 590 nM

SMILES: CCOc1cc(N(C)C)ccc1[C@H]1CC(=O)Nc2cc3c(cc21)OCCO3 [(S)-FQI-37]
- GI50 (HuH7 cells): 70 nM
- GI50 (SNU-423 cells): 60 nM

SMILES: CCOc1cc(N(C)C)ccc1C1CC(=O)Nc2cc3c(cc21)OCCO3 (racemic) [FQI-37, 9-[4-(dimethylamino)-2-ethoxy-phenyl]-3,6,8,9-tetrahydro-2H-[1,4]dioxino[2,3-g]quinolin-7-one]
- GI50 (HT-29 cells): 398 nM
- GI50 (HuH7 cells): 70 nM
- GI50 (SNU-423 cells): 141 nM
- GI50 (HCT-15 cells): 18 nM
- GI50 (CaCo-2 cells): 141 nM
